Data as given in BindingDB's records for patent US20240018157 (Schrödinger, 2024).

biological target: T1, Mucosa-associated lymphoid tissue lymphoma translocation protein 1 (Homo sapiens, UniProt Q9UDY8); experiment: MALT1 Protease Assay 2
T1 sequence (Q9UDY8 whole entry): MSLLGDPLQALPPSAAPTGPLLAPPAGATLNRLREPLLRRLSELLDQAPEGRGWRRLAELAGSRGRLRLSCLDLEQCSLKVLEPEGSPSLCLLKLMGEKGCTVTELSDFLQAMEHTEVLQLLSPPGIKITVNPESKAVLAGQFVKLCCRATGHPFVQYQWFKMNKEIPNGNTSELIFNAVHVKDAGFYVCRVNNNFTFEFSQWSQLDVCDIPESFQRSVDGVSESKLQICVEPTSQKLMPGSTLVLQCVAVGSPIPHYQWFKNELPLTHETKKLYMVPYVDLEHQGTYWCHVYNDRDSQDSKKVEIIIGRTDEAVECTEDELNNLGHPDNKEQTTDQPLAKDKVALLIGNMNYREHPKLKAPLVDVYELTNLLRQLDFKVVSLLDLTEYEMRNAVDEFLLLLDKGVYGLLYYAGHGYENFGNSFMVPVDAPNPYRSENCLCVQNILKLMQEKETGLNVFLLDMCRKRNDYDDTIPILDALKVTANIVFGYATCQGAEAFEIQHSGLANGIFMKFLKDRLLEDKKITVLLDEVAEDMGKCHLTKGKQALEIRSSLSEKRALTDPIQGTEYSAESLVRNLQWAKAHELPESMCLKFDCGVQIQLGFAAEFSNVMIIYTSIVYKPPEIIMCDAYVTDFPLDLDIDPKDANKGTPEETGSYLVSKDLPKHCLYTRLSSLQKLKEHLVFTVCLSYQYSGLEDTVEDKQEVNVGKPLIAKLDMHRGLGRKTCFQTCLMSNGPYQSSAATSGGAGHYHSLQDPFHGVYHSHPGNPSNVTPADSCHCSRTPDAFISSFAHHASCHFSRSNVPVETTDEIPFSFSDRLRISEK
Experimental: Test compounds were dissolved in 100% DMSO at stock of 10 mM, with final DMSO concentration 0.1%. Test compounds were pre-incubated with MALT1 protein for 2 h at room temperature.

Compound	IC50 [nM]
C[C@@]1(C(F)(F)F)CN(C(=O)Nc2cc(N=S(C)(C)=O)nc(C(F)(F)F)c2)c2cnc3cc(Cl)nn3c21 [US20240018157, Example 83]	< 10
C[C@@H](O)COc1ncc(NC(=O)N2C[C@@](C)(C(F)(F)F)c3c2cnc2cc(Cl)nn32)cc1Cl [US20240018157, Example 74]	10 to 100
Cc1cc(NC(=O)N2C[C@@](C)(C(F)(F)F)c3c2cnc2cc(Cl)nn32)nc2c1cnn2C [US20240018157, Example 176]	> 1000
C[C@]1(C(F)(F)F)CN(C(=O)Nc2cnnc(C(F)F)c2)c2cnc3cc(C#N)nn3c21 [US20240018157, Example 189]	100 to 1000
C[C@]1(C(F)F)CN(C(=O)Nc2cnc(OC(F)F)c(Cl)c2)c2cnc3cc(Cl)nn3c21 [US20240018157, Example 204]	10 to 100
C[S@@+]([O-])c1ccc(NC(=O)N2C[C@@](C)(C(F)(F)F)c3c2cnc2cc(Cl)nn32)cc1C(F)F [US20240018157, Example 117]	100 to 1000
C[C@@]1(C(F)(F)F)CN(C(=O)Nc2cnnc(C(F)F)c2)c2cnc3c(F)c(Cl)nn3c21 [US20240018157, Example 138]	10 to 100
CC1CC(NC(=O)N2C[C@@](C)(C(F)(F)F)c3c2cnc2cc(Cl)nn32)CCO1 (stereo partly drawn) [US20240018157, Example 173]	> 1000
C[C@@]1(C(F)(F)F)CN(C(=O)Nc2cnnc(C(F)F)c2)c2cnc3cc(F)nn3c21 [US20240018157, Example 114]	> 1000
CN1CC(Nc2cc(NC(=O)N3C[C@@](C)(C(F)(F)F)c4c3cnc3cc(Cl)nn43)cc(C(F)(F)F)n2)C1 [US20240018157, Example 169]	> 1000
Cn1cc([C@]2(C(F)(F)F)CN(C(=O)Nc3cnnc(C(F)F)c3)c3cnc4cc(Cl)nn4c32)cn1 [US20240018157, Example 210]	> 1000
C[C@]1(C(F)(F)F)CN(C(=O)Nc2cnnc(C(F)F)c2)c2cnc3cc(CC(F)F)nn3c21 [US20240018157, Example 155]	100 to 1000
C[C@@]1(C(F)(F)F)CN(C(=O)Nc2cnc([C@H](O)CO)c(Cl)c2)c2cnc3cc(Cl)nn3c21 [US20240018157, Example 55]	10 to 100
CC1(C)CN(C(=O)Nc2cnc(-n3nccn3)c(Cl)c2)c2cnc3cc(Cl)nn3c21 [US20240018157, Example 1]	10 to 100
C[C@@]1(C(F)F)CN(C(=O)Nc2cnc(OC(F)F)c(Cl)c2)c2cnc3cc(Cl)nn3c21 [US20240018157, Example 205]	< 10
CN(C)C(=O)c1ncc(NC(=O)N2C[C@@](C)(C(F)(F)F)c3c2cnc2cc(Cl)nn32)cc1C(F)F [US20240018157, Example 122]	< 10
Cc1nnc(C(F)F)cc1NC(=O)N1C[C@@](C)(C(F)(F)F)c2c1cnc1cc(Cl)nn21 [US20240018157, Example 154]	100 to 1000
C[C@]1(C(F)(F)F)CN(C(=O)Nc2cnnc(C(F)F)c2)c2cnc3cc(CC(F)(F)F)nn3c21 [US20240018157, Example 196]	> 1000
C[C@@H](O)c1cc(NC(=O)N2C[C@@](C)(C(F)(F)F)c3c2cnc2cc(Cl)nn32)cc(C(F)(F)F)n1 [US20240018157, Example 69]	10 to 100
C[C@@]1(C(F)(F)F)CN(C(=O)N[C@H]2CCC(F)(F)C2)c2cnc3cc(Cl)nn3c21 [US20240018157, Example 166]	> 1000
O=C(Nc1cnnc(C(F)F)c1)N1C[C@](C2CC2)(C(F)(F)F)c2c1cnc1cc(Cl)nn21 [US20240018157, Example 145]	100 to 1000
COc1cnc(C(F)(F)F)cc1NC(=O)N1C[C@@](C)(C(F)(F)F)c2c1cnc1cc(Cl)nn21 [US20240018157, Example 66]	< 10
C[C@@]1(C(F)(F)F)CN(C(=O)Nc2cnc(C3COC3)c(Cl)c2)c2cnc3cc(Cl)nn3c21 [US20240018157, Example 209]	> 1000
C[C@@]1(C(F)(F)F)CN(C(=O)Nc2cnc([C@@H](O)CO)c(Cl)c2)c2cnc3cc(Cl)nn3c21 [US20240018157, Example 56]	100 to 1000
C[C@@]1(C(F)(F)F)CN(C(=O)Nc2cc(C(F)F)ns2)c2cnc3cc(Cl)nn3c21 [US20240018157, Example 179]	> 1000
C[C@@]1(C(F)(F)F)CN(C(=O)Nc2ccnc(C(F)F)c2)c2cnc3cc(F)nn3c21 [US20240018157, Example 88]	10 to 100
C[C@@]1(C(F)(F)F)CN(C(=O)Nc2ccnc(C(F)F)c2)c2cnc3cc(Cl)nn3c21 [US20240018157, Example 60]	< 10
CN(C(=O)c1ncc(NC(=O)N2C[C@@](C)(C(F)(F)F)c3c2cnc2cc(Cl)nn32)cc1C(F)F)C1CC1 [US20240018157, Example 151]	< 10
C[C@@]1(C(F)(F)F)CN(C(=O)Nc2cnn(S(C)(=O)=O)c2)c2cnc3cc(Cl)nn3c21 [US20240018157, Example 94]	100 to 1000

The remaining lines, values ahead:

IC50 [nM]	Compound
< 10	C[C@@]1(C(F)(F)F)CN(C(=O)Nc2cnc(-n3ncc([C@@H](O)CO)n3)c(Cl)c2)c2cnc3cc(Cl)nn3c21 [US20240018157, Example 71]
< 10	C[C@@]1(C(F)(F)F)CN(C(=O)Nc2cnc(-n3nccc3C#N)c(C#N)c2)c2cnc3cc(Cl)nn3c21 [US20240018157, Example 87]
> 1000	Cc1cc(NC(=O)N2C[C@](C)(C(F)(F)F)c3c2cnc2cc(F)nn32)cnc1-n1nccn1 [US20240018157, Example 124]
< 10	C[C@@]1(C(F)(F)F)CN(C(=O)Nc2cnc(-n3nccn3)c(Cl)c2)c2cnc3cc(F)nn3c21 [US20240018157, Example 39]
< 10	O=C(Nc1cnc(-n2nccn2)c(Cl)c1)N1CC(O)(C(F)(F)F)c2c1cnc1cc(Cl)nn21 (stereo not drawn) [US20240018157, Example 201]
10 to 100	C[C@@]1(C2CC2)CN(C(=O)Nc2cnc(-n3nccn3)c(Cl)c2)c2cnc3cc(Cl)nn3c21 [US20240018157, Example 4]
< 10	C[C@@]1(C(F)F)CN(C(=O)Nc2cnc(-n3nccn3)c(Cl)c2)c2cnc3cc(Cl)nn3c21 [US20240018157, Example 128]
< 10	C[C@@]1(C(F)(F)F)CN(C(=O)Nc2cnc(N=S(C)(C)=O)c(Cl)c2)c2cnc3cc(Cl)nn3c21 [US20240018157, Example 85]
> 1000	C[C@]1(C(F)(F)F)CN(C(=O)Nc2cnc(-n3nccn3)c(C(F)(F)F)c2)c2cnc3cc(F)nn3c21 [US20240018157, Example 182]
< 10	Cc1cc(NC(=O)N2C[C@@](C)(C(F)(F)F)c3c2cnc2cc(F)nn32)cnc1-n1nccn1 [US20240018157, Example 125]
< 10	COC[C@@]1(C(F)(F)F)CN(C(=O)Nc2cnc(-n3nccn3)c(Cl)c2)c2cnc3cc(Cl)nn3c21 [US20240018157, Example 97]
< 10	C[C@@]1(C(F)(F)F)CN(C(=O)Nc2cnc(-n3nccn3)c(C(F)F)c2)c2cnc3cc(Cl)nn3c21 [US20240018157, Example 35]
> 1000	Cc1nn2c3c(cnc2c1N)N(C(=O)Nc1cnc(-n2nccn2)c(Cl)c1)C[C@@]3(C)C(F)(F)F [US20240018157, Example 160]
> 1000	C[C@]1(C(F)(F)F)CN(C(=O)Nc2cnc(-n3nccn3)c(Cl)c2)c2cnc3c(F)c(F)nn3c21 [US20240018157, Example 139]
< 10	C[C@H](O)c1cnn(-c2ncc(NC(=O)N3C[C@@](C)(C(F)(F)F)c4c3cnc3cc(Cl)nn43)cc2C(F)F)n1 [US20240018157, Example 126]
< 10	C[C@@H](O)c1cnn(-c2ncc(NC(=O)N3C[C@@](C)(C(F)(F)F)c4c3cnc3cc(Cl)nn43)cc2Cl)n1 [US20240018157, Example 77]
> 1000	C[C@]1(C(F)(F)F)CN(C(=O)Nc2cnc(-n3nccn3)c(Cl)c2)c2cnc3c(F)cnn3c21 [US20240018157, Example 147]
< 10	C[C@@]1(C(F)(F)F)CN(C(=O)Nc2cnc(-n3ncc(CO)n3)c(Cl)c2)c2cnc3cc(Cl)nn3c21 [US20240018157, Example 24]
< 10	Cc1cc2ncc3c(n2n1)[C@](C)(C(F)(F)F)CN3C(=O)Nc1cnc(-n2nccn2)c(Cl)c1 [US20240018157, Example 32]
< 10	C[C@@]1(C(F)(F)F)CN(C(=O)Nc2cnc(-n3nccn3)c(Cl)c2)c2cnc3c(F)c(F)nn3c21 [US20240018157, Example 140]
< 10	C[C@@]1(C(F)(F)F)CN(C(=O)Nc2cnc(-n3ncc([C@H](O)CO)n3)c(Cl)c2)c2cnc3cc(Cl)nn3c21 [US20240018157, Example 70]
> 1000	Cc1cn2ncc3c(c2n1)C(C)(C)CN3C(=O)Nc1cnc(C(=O)N2CC(O)C2)c(Cl)c1 [US20240018157, Example 208]
< 10	Cc1cn2ncc3c(c2n1)[C@](C)(C(F)(F)F)CN3C(=O)Nc1cnc(-n2nccn2)c(Cl)c1 [US20240018157, Example 152]
> 1000	CNc1cc(NC(=O)N2C[C@@](C)(C(F)(F)F)c3c2cnc2cc(Cl)nn32)ncc1-n1nccn1 [US20240018157, Example 186]
